Test results as given in ChEMBL document CHEMBL1201862, “PubChem BioAssay data set” (2004).
Active and inactive are the calls of the source.

Assays:
Caspase-3 = biological target: T1, Caspase-3 (Homo sapiens, UniProt P42574); assay: inhibition of recombinant caspase-3 activity – biochemical, luminescence, set 2, selectivity assay for SENP protease inhibitor project, SAR follow-up (AID 588599); format: functional
T1 sequence (P42574 whole entry): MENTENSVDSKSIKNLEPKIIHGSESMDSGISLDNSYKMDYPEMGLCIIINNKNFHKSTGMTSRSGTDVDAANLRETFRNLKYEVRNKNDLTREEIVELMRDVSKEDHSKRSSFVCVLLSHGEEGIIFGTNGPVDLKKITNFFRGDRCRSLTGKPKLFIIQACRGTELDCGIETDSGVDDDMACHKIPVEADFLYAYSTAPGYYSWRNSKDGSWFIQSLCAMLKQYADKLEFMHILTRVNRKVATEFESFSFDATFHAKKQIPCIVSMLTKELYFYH

[1] = biological target: T2, Sentrin-specific protease 8 (Homo sapiens, UniProt Q96LD8); assay: inhibition of sentrin protease 8 – biochemical, luminescence, set 2, SAR follow-up (AID 588601); format: functional
T2 sequence (Q96LD8 whole entry): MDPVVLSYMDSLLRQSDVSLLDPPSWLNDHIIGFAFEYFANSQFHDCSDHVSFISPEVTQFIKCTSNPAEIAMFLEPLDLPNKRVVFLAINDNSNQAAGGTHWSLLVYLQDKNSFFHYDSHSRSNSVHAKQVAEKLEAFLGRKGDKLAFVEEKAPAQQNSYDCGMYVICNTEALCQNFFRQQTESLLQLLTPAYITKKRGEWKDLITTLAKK

[2] = biological target: T3, Sentrin-specific protease 7 (Homo sapiens, UniProt Q9BQF6); assay: inhibition of human SENP7 cleavage activity – biochemical, luminescence, set 2, SAR follow-up (AID 588600); format: functional
T3 sequence (Q9BQF6 whole entry): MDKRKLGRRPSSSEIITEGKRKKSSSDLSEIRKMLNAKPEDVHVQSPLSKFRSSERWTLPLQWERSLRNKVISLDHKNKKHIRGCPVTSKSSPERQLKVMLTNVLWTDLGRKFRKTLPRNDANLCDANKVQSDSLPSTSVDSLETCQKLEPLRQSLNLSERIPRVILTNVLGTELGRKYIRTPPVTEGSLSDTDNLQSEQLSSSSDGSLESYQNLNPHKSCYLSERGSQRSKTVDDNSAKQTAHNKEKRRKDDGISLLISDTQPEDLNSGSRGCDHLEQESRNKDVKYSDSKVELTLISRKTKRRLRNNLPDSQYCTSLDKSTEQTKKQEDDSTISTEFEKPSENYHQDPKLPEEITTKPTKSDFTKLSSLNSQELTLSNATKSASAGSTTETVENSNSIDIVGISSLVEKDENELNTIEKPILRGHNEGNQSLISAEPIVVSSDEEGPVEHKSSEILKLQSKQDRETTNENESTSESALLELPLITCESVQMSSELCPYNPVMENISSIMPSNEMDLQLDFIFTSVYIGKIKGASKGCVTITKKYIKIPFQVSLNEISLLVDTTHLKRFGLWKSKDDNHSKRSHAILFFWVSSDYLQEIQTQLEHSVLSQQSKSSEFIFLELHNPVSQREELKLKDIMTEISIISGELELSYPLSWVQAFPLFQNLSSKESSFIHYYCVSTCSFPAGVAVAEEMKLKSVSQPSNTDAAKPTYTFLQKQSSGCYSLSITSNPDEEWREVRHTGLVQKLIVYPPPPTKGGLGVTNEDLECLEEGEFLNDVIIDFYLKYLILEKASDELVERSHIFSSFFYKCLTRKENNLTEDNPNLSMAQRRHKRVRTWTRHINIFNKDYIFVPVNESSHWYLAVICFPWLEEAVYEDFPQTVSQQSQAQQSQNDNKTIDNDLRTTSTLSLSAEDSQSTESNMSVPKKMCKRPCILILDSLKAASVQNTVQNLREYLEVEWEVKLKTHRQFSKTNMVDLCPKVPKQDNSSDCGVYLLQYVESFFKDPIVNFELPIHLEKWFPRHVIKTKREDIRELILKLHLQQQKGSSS

[3] = biological target: T4, Sentrin-specific protease 6 (Homo sapiens, UniProt Q9GZR1); assay: inhibition of human SENP6 catalytic domain – biochemical, luminescence, set 2, SAR follow-up (AID 588598); format: functional
T4 sequence (Q9GZR1 whole entry): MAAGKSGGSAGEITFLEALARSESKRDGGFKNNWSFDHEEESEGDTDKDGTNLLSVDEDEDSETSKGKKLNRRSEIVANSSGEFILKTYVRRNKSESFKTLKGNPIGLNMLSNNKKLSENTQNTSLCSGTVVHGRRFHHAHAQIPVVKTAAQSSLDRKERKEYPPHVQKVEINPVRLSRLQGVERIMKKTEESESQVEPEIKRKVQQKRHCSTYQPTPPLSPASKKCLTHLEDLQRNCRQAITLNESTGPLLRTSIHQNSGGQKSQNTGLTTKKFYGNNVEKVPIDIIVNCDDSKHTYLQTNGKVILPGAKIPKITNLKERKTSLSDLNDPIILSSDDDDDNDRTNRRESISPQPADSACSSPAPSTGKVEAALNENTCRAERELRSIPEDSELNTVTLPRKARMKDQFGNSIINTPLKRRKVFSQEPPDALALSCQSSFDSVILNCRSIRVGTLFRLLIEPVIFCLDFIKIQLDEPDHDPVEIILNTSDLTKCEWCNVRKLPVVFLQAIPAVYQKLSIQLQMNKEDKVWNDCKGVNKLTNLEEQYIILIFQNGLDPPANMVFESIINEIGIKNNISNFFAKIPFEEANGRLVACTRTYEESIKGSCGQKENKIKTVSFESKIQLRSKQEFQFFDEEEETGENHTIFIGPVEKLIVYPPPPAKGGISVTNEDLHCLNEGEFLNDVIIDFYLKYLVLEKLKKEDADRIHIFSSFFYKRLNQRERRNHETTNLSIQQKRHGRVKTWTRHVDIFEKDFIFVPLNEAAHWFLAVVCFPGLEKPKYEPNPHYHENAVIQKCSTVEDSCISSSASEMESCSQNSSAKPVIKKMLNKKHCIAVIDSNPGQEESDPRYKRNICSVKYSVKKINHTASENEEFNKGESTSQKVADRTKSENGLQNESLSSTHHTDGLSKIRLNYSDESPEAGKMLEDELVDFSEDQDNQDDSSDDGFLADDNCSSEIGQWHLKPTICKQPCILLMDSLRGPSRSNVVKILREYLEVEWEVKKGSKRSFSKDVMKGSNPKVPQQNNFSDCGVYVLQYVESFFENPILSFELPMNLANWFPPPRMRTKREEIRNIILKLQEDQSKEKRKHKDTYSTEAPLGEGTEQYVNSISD

[4] = Trypanosoma cruzi growth suppression in host cells – NIH3T3 host cells, beta-gal luminescence, confirmation (AID 2044); format: functional, cell-based;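 further: intracellular parasites grown in NIH/3T3 mouse fibroblasts as host cells; luminescent beta-galactosidase reporter signal from transgenic T. cruzi replicating inside host cells; inhibitors lower the luminescence signal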
[5] = NIH3T3 cell viability loss – ATP luminescence, mouse fibroblasts, counter-screen, dose response (AID 2010); format: functional, cell-based;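 further: cells exposed to compound for about 90 hours before reading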
[6] = biological target: T5, V-type proton ATPase subunit c' (Saccharomyces cerevisiae S288c, UniProt P32842); assay: Dose Response of Small Molecules that Regulate V-ATPase Proton Transport in Yeast using pHLuorin, Cherry Pick 2.; format: functional; details: read-out: EC50_MICROM
T5 sequence (P32842 whole entry): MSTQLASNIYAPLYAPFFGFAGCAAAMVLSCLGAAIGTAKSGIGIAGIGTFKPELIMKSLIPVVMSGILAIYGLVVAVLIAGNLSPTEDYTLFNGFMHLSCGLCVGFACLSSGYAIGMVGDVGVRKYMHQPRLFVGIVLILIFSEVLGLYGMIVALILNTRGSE

[7] = biological target: T5, V-type proton ATPase subunit c'; assay: Dose Response with BCECF Assay for V-ATPase inhibitors that increase vacuolar pH, Powder Set 1.; format: functional; details: read-out: EC50_MICROM
[8] = biological target: T5, V-type proton ATPase subunit c'; assay: Dose Response of Small Molecules that Regulate V-ATPase Proton Transport in Yeast using pHLuorin, Powder Set1.; format: functional; details: read-out: EC50_MICROM
Melanocortin receptor 4 = Melanocortin receptor 4 (Homo sapiens, UniProt P32245); assay: inhibitors of MC4R cAMP signaling – cell-based, TR-FRET, biased antagonists, dose response (AID 602298); format: functional;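 further: antagonist potency against agonist-stimulated cAMP production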
[9] = cAMP pathway inhibition in counterscreen cell line – TR-FRET cAMP detection, counter-screen for MC4R biased antagonist project, dose response (AID 602305); format: functional, cell-based;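 further: U2OS cells stimulated with forskolin near its EC80 as the cAMP inducer; potency is for inhibition of forskolin-stimulated cAMP signaling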
[10] = biological target: Melanin-concentrating hormone receptor 1 (Homo sapiens, UniProt Q99705); assay: Late-stage fluorescence-based counterscreen for antagonists of the G-protein coupled receptor 7 (GPR7): cell-based dose response assay to identify antagonists of the melanin-concentrating hormone receptor 1 (MCHR1) Set 6.; format: functional
Sequence of Melanin-concentrating hormone receptor 1 (Q99705 whole entry): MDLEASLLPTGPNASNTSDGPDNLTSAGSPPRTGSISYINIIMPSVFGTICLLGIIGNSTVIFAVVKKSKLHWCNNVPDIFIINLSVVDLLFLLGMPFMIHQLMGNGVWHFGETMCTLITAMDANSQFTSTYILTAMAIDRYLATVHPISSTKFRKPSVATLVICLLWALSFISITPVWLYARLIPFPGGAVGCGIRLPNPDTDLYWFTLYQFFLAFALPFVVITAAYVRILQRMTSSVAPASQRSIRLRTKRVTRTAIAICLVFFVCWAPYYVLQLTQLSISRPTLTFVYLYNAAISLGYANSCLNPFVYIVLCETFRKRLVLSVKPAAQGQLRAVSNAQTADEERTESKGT

Sequence of Melanocortin receptor 4 (P32245 whole entry): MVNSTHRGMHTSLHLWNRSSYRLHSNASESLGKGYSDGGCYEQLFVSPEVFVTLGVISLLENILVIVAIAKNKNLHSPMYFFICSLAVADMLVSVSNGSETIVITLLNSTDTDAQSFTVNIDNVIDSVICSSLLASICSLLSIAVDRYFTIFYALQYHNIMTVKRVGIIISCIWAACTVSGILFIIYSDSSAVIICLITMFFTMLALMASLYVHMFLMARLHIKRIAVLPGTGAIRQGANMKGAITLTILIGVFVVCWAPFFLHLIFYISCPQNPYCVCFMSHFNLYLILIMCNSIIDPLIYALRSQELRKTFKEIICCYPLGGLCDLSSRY

CN(C(=O)c1cccc(Br)c1)c1nc2ccccc2s1
IC50 (Caspase-3): > 99 µM (inactive)
IC50 [1]: > 99 µM (inactive)
IC50 [2]: > 99 µM (inactive)
IC50 [3]: > 99 µM (inactive)

O=C(c1ccc([N+](=O)[O-])o1)N1CCN(c2nc3c(F)cc(F)cc3s2)CC1
EC50 [4]: 0.466 µM (active)
EC50 [5]: 22.4 µM (active)
EC50 [6]: 8.9 µM (active)
EC50 [7]: 0.39 µM (active)
EC50 [8]: 1.93 µM (active)

CC(=O)Oc1ccc2nc(-c3ccc(Br)o3)oc(=O)c2c1
IC50 (Melanocortin receptor 4): > 64.6 µM (inactive)
IC50 [9]: > 64.6 µM (inactive)

COC(=O)c1ccccc1Cn1ncc(Cl)c(Oc2ccc(OC)cc2)c1=O
IC50 [10]: 1.16 µM (active)
